EC50 data for 17 molecules are collected here from patent US20220089575A1, “FARNESOID X RECEPTOR AGONISTS AND USES THEREOF” (Metacrine, Inc., priority 2017, published 2022).

The target in this assay is T1, hFXR (Homo sapiens, UniProt Q96RI1).
T1 construct: expressed in transfected cells; host or cells: CV-1 cells
T1 sequence (Q96RI1 1-486): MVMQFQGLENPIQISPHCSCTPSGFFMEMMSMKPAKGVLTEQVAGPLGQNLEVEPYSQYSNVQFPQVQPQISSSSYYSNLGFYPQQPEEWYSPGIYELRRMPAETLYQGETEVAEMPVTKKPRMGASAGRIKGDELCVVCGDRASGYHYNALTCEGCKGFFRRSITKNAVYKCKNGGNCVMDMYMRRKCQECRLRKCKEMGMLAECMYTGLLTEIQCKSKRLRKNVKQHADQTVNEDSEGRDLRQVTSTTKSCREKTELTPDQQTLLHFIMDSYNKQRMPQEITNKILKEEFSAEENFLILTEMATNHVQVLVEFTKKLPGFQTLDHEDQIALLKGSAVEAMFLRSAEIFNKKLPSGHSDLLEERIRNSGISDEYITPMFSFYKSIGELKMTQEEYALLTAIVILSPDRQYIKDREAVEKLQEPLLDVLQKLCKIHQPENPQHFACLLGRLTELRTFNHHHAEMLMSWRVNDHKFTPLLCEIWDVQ
T1 sequence (P19793 1-462 partner): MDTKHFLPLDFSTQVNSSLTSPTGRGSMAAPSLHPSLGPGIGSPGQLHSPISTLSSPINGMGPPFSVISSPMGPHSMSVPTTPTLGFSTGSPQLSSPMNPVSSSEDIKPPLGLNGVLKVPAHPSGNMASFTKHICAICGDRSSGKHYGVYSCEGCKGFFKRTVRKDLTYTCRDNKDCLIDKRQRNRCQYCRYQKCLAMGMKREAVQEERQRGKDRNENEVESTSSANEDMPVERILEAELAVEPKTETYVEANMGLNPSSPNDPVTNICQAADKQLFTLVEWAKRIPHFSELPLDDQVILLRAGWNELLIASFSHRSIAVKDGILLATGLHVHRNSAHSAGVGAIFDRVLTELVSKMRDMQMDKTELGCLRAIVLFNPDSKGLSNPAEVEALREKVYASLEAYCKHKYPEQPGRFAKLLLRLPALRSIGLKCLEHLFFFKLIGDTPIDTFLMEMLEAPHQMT
The assay is described as follows: In Vitro FXR Assay (TK): TK-ECRE-luc reporter in transfected CV-1 cells. The note with it: 18 hrs, luminescence, maximum efficacy of <25% of the Fexarmine control classified as '+'. It is filed as cell-based. Summed up: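 CV-1 cells in DMEM with 10% charcoal-stripped FBS were co-transfected with hFXR, hRXR, TK-ECRE-luc reporter and pCMX-YFP plasmids. After 18 h, compounds serially diluted in DMSO were added for a further 18 h, then cells were lysed and luminescence read.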

A value given as a limit tells only on which side of the number the result lay.

For orientation: EC50 means the concentration at which the effect is half-maximal. Lower therefore signals an effect from little substance. As for `COc1ccc([C@H]2CC[C@H](CN(c3cc(-c4coc(C5CC5)n4)ccn3)C(=O)[C@H]3CC[C@H](OC(=O)NC4CC4)CC3)CC2)nc1C` [Compound 6.57, trans-4-((4-(2-Cyclopropyloxazol-4-yl)pyridine-2-yl)((trans-4-(5-methoxy-6-methylpyridin-2-yl)cyclohexyl)methyl)carbamoyl)cyclohexyl cyclopropylcarbamate], the EC50 was at most 250 nM.

Turning to `COc1ccc([C@H]2CC[C@H](CN(c3cccc(-c4cnc(C5CC5)s4)c3)C(=O)[C@H]3CC[C@H](CC(=O)O)CC3)CC2)cc1C` [Compound 19, 2-(trans-4-((3-(2-Cyclopropylthiazol-5-yl)phenyl)((trans-4-(4-methoxy-3-methylphenyl)cyclohexyl)methyl)carbamoyl)cyclohexyl)acetic acid], the EC50 was at most 250 nM.

Regarding `COc1ccc([C@H]2CC[C@H](CN(c3cc(-c4coc(C5CC5)n4)ccn3)C(=O)[C@H]3CC[C@H](OC(=O)N4CC(N5CC(O)C5)C4)CC3)CC2)nc1C` [Compound 7.108, trans-4-((4-(2-Cyclopropyloxazol-4-yl)pyridin-2-yl)((trans-4-(5-methoxy-6-methylpyridin-2-yl)cyclohexyl)methyl)carbamoyl)cyclohexyl 3-hydroxy-[1,3′-biazetidine]-1′-carboxylate], the EC50 is at most 250 nM.

As to `CNCCOCC(=O)N[C@H]1CC[C@H](C(=O)N(C[C@H]2CC[C@H](c3ccc(OC)c(C)c3)CC2)c2cccc(-c3cnc(C4CC4)s3)c2)CC1` [Compound 32.06, trans-N-(3-(2-Cyclopropylthiazol-5-yl)phenyl)-N-((trans-4-(4-methoxy-3-methylphenyl)cyclohexyl)methyl)-4-(2-(2-(methylamino)ethoxy)acetamido) cyclohexanecarboxamide], the half-maximal effective concentration (EC50) is at least 1000 nM.

Regarding `CCCCC(=O)N[C@H]1CC[C@H](C(=O)N(C[C@H]2CC[C@H](c3ccc(OC)c(C)c3)CC2)c2cccc(-c3cnc(C4CC4)s3)c2)CC1` [Compound 25.17, trans-N-(3-(2-Cyclopropylthiazol-5-yl)phenyl)-N-((trans-4-(4-methoxy-3-methylphenyl)cyclohexyl)methyl)-4-pentanamidocyclohexanecarboxamide], the EC50 was at most 250 nM.

In turn, `COc1ncc(-c2cccc(N(C[C@H]3CC[C@H](c4ccc(OC)c(C)c4)CC3)C(=O)[C@H]3CC[C@H](OC(=O)N(C)C)CC3)c2)s1` [Compound 13, trans-4-(((trans-4-(4-Methoxy-3-methylphenyl)cyclohexyl)methyl)(3-(2-methoxythiazol-5-yl)phenyl)carbamoyl)cyclohexyl dimethylcarbamate] displayed a concentration giving a half-maximal response (EC50) of at most 250 nM.

As to `COc1ccc([C@H]2CC[C@H](CN(c3cc(-c4cnn(C(C)C)c4)ccn3)C(=O)[C@H]3CC[C@H](OC(=O)N4CC(N(C)C)C4)CC3)CC2)cc1C#N` [Compound 7.50, trans-4-(((trans-4-(3-Cyano-4-methoxyphenyl)cyclohexyl)methyl)(4-(1-isopropyl-1H-pyrazol-4-yl)pyridin-2-yl)carbamoyl)cyclohexyl 3-(dimethylamino)azetidine-1-carboxylate], the EC50 is at most 250 nM.

Molecule `COc1ccc([C@H]2CC[C@H](CN(c3cccc(-c4coc(C(C)C)n4)c3)C(=O)[C@H]3CC[C@H](OC(=O)N4CC(O)C4)CC3)CC2)cc1C` [Compound 7.64, trans-4-((3-(2-Isopropyloxazol-4-yl)phenyl)((trans-4-(4-methoxy-3-methylphenyl)cyclohexyl)methyl)carbamoyl)cyclohexyl 3-hydroxyazetidine-1-carboxylate] came in with a concentration giving a half-maximal response (EC50) of at most 250 nM.

`CCOC(=O)C[C@H]1CC[C@H](C(=O)N(C[C@H]2CC[C@H](c3ccc(OC)c(C#N)n3)CC2)c2cc(-c3cnn(C(C)C)c3)ccn2)CC1` [Compound 18.22, Ethyl 2-(trans-4-(((trans-4-(6-cyano-5-methoxypyridin-2-yl)cyclohexyl)methyl)(4-(1-isopropyl-1H-pyrazol-4-yl)pyridin-2-yl)carbamoyl)cyclohexyl) acetate] yielded an EC50 of at most 250 nM.

With `CCNC(=O)O[C@H]1CC[C@H](C(=O)N(C[C@H]2CC[C@H](c3ccc(OC)c(C)n3)CC2)c2cc(-c3cnn(C(C)C)c3)ccn2)CC1` [Compound 5.25, trans-4-((4-(1-Isopropyl-1H-pyrazol-4-yl)pyridin-2-yl)((trans-4-(5-methoxy-6-methylpyridin-2-yl)cyclohexyl)methyl)carbamoyl)cyclohexyl ethylcarbamate], the concentration for a half-maximal effect (EC50) is at most 250 nM.

In the case of `CCC1CN(C(=O)O[C@H]2CC[C@H](C(=O)N(C[C@H]3CC[C@H](c4ccc(OC)c(C)n4)CC3)c3cc(-c4coc(C5CC5)n4)ccn3)CC2)C1` [Compound 7.90, trans-4-((4-(2-Cyclopropyloxazol-4-yl)pyridine-2-yl)((trans-4-(5-methoxy-6-methylpyridin-2-yl)cyclohexyl)methyl)carbamoyl)cyclohexyl 3-ethylazetidine-1-carboxylate], the EC50 was at most 250 nM.

Molecule `CCC1CN(C(=O)O[C@H]2CC[C@H](C(=O)N(C[C@H]3CC[C@H](c4ccc(OC)c(C#N)c4)CC3)c3cc(-c4cnn(C(C)C)c4)ccn3)CC2)C1` [Compound 7.47, trans-4-(((trans-4-(3-Cyano-4-methoxyphenyl)cyclohexyl)methyl)(4-(1-isopropyl-1H-pyrazol-4-yl)pyridin-2-yl)carbamoyl)cyclohexyl 3-ethylazetidine-1-carboxylate] returned a concentration giving a half-maximal response (EC50) of at most 250 nM.

Molecule `COc1ccc([C@H]2CC[C@H](CN(c3cccc(-c4cnn(C5CC5)c4)c3)C(=O)[C@H]3CC[C@H](CNS(C)(=O)=O)CC3)CC2)cc1C` [Compound 26.15, trans-N-(3-(1-Cyclopropyl-1H-pyrazol-4-yl)phenyl)-N-((trans-4-(4-methoxy-3-methylphenyl)cyclohexyl)methyl)-4-(methylsulfonamidomethyl) cyclohexanecarboxamide] yielded a half-maximal effective concentration (EC50) of at most 250 nM.

Consider `COc1ccc([C@H]2CC[C@H](CN(c3cccc(-c4cnn(C5CC5)c4)c3)C(=O)[C@H]3CC[C@H](OC(=O)NCCCCN(C)C)CC3)CC2)cc1C` [Compound 4.20, trans-4-((3-(1-Cyclopropyl-1H-pyrazol-4-yl)phenyl)((trans-4-(4-methoxy-3-methylphenyl)cyclohexyl)methyl)carbamoyl)cyclohexyl (4-(dimethylamino)butyl)carbamate], for which the EC50 is at most 250 nM.

The molecule `COCCN(C)C(=O)O[C@H]1CC[C@H](C(=O)N(C[C@H]2CC[C@H](c3ccc(OC)c(C)n3)CC2)c2cc(-c3coc(C4CC4)n3)ccn2)CC1` [Compound 6.63] displayed an EC50 of at most 250 nM.

As to `COc1ncc(-c2cccc(N(C[C@H]3CC[C@H](c4ccc(OC)c(C)c4)CC3)C(=O)[C@H]3CC[C@H](C(N)=O)CC3)c2)s1` [Compound 24.01, trans-N^1-((trans-4-(4-Methoxy-3-methylphenyl)cyclohexyl)methyl)-N^1-(3-(2-methoxythiazol-5-yl)phenyl)cyclohexane-1,4-dicarboxamide], the EC50 was at most 250 nM.

Molecule `COc1ncc([C@H]2CC[C@H](CN(c3cccc(-c4cnn(C5CC5)c4)c3)C(=O)[C@H]3CC[C@H](OC(=O)N4CC(O)C4)CC3)CC2)cc1Cl` [Compound 7.23, trans-4-(((trans-4-(5-Chloro-6-methoxypyridin-3-yl)cyclohexyl)methyl)(3-(1-cyclopropyl-1H-pyrazol-4-yl)phenyl)carbamoyl) cyclohexyl 3-hydroxyazetidine-1-carboxylate] came in with an EC50 of at most 250 nM.
